This is an account of results in US9169254B2, “Spiroimidazolone derivative” (Chugai Seiyaku Kabushiki Kaisha, priority 2009, dated 2015).

The target of this experiment is T1, human PTH1 receptor (Homo sapiens, UniProt Q03431).
T1 sequence (Q03431 27-593): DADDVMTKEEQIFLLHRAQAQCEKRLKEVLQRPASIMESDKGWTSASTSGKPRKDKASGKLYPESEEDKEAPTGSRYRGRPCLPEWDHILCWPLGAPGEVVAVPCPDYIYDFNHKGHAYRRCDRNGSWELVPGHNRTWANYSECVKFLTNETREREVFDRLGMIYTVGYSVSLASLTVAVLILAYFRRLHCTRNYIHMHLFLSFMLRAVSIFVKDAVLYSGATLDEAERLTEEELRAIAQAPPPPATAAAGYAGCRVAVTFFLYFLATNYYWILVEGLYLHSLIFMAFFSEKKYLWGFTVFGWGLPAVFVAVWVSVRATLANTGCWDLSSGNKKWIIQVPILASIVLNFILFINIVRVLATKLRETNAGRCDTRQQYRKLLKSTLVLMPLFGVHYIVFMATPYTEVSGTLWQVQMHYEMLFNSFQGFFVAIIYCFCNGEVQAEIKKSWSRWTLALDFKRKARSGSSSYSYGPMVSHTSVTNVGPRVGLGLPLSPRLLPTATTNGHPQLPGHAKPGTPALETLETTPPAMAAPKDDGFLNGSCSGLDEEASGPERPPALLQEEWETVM
Put plainly: In vitro cAMP signal activity in HKRK-B7 cells (LLC-PK1 cells overexpressing the human PTH1 receptor). It is filed as cell-based. As to conditions: HKRK-B7 cells; compound at 1×10^−3 M; cAMP produced as percentage of that produced by hPTH(1-34) at 100 nM.
As for `Cc1cc(C(=O)N2CCC(O)(CF)CC2)cc(C)c1/C=C/S(=O)(=O)N1CCC2(CC1)N=C(c1ccc(C(F)(F)F)c(OCC(F)(F)C(F)F)c1)NC2=O` [Compound 1274, 8-{(E)-2-[4-(4-fluoromethyl-4-hydroxy-piperidine-1-carbonyl)-2,6-dimethyl-phenyl]-ethenesulfonyl}-2-[3-(2,2,3,3-tetrafluoro-propoxy)-4-trifluoromethyl-phenyl]-1,3,8-triaza-spiro[4.5]dec-1-en-4-one], the “cAMP production activity (%)” value amounted to 81%.
With `Cc1cc(N2C(=O)CNC2=O)ccc1CCS(=O)(=O)N1CCC2(CC1)N=C(C1CCC(C(C)C)CC1)NC2=O` (stereo not drawn) [Compound 882, 3-(4-{2-[2-(4-isopropyl-cyclohexyl)-4-oxo-1,3,8-triaza-spiro[4.5]dec-1-ene-8-sulfonyl]-ethyl}-3-methyl-phenyl)-imidazolidine-2,4-dione] the figure was 70%.
Turning to `CC(=O)Nc1ccc(CCS(=O)(=O)N2CCC3(CC2)N=C([C@H]2CC[C@@H](C/C=C/F)CC2)NC3=O)c(C)c1` [Compound 1070, N-[4-(2-{2-[4-((E)-3-fluoro-allyl)-cyclohexyl]-4-oxo-1,3,8-triaza-spiro[4.5]dec-1-ene-8-sulfonyl}-ethyl)-3-methyl-phenyl]-acetamide], the “cAMP production activity (%)” value came to 69%.
For `Cc1cc(N(C)C(N)=O)cc(C)c1CCS(=O)(=O)N1CCC2(CC1)N=C(CCCCCCCCCCCO)NC2=O` [Compound 1361, 1-(4-{2-[2-(11-hydroxy-undecyl)-4-oxo-1,3,8-triaza-spiro[4.5]dec-1-ene-8-sulfonyl]-ethyl}-3,5-dimethyl-phenyl)-1-methyl-urea], the “cAMP production activity (%)” value is reported as 104%.
Next, `Cc1cc(N2C(=O)C(C)C[C@@H]2CO)cc(C)c1/C=C/S(=O)(=O)N1CCC2(CC1)N=C(c1cccc(OC(F)(F)F)c1)NC2=O` (stereo partly drawn) [Compound 713, 8-{(E)-2-[4-((R)-5-hydroxymethyl-3-methyl-2-oxo-pyrrolidin-1-yl)-2,6-dimethyl-phenyl]-ethenesulfonyl}-2-(3-trifluoromethoxy-phenyl)-1,3,8-triaza-spiro[4.5]dec-1-en-4-one]: 55%; `Cc1cc(C(=O)N2CCNC(=O)C2)cc(C)c1/C=C/S(=O)(=O)N1CCC2(CC1)N=C(c1ccc(F)c(C(F)(F)F)c1)NC2=O` [Compound 968, 8-{(E)-2-[2,6-Dimethyl-4-(3-oxo-piperazine-1-carbonyl)-phenyl]-ethenesulfonyl}-2-(4-fluoro-3-trifluoromethyl-phenyl)-1,3,8-triaza-spiro[4.5]dec-1-en-4-one]: 69%.
Take `CCCCCCCCCC1=NC2(CCN(S(=O)(=O)CCc3c(C)cc(C(=O)N4CC(O)C4)cc3C)CC2)C(=O)N1` [Compound 985, 8-{2-[4-(3-hydroxy-azetidine-1-carbonyl)-2,6-dimethyl-phenyl]-ethanesulfonyl}-2-nonyl-1,3,8-triaza-spiro[4.5]dec-1-en-4-one]: the “cAMP production activity (%)” value was found to be 120%.
In the case of `Cc1cc2ccc1CCS(=O)(=O)N1CCC3(CC1)N=C(NC3=O)c1cc(cc(C(F)(F)F)c1)OCC/C=C/COCCN(CCO)C2=O` [Compound 1428], the “cAMP production activity (%)” value is 67%.
With `O=C1NC(C2CCC(CCC(F)(F)F)CC2)=NC12CCN(S(=O)(=O)/C=C/c1cccc3c1ccn3CCOC[C@@H](O)CO)CC2` (stereo partly drawn) [Compound 704, 8-((E)-2-{1-[2-((S)-2,3-Dihydroxy-propoxy)-ethyl]-1H-indol-4-yl}-ethenesulfonyl)-2-[4-(3,3,3-trifluoro-propyl)-cyclohexyl]-1,3,8-triaza-spiro[4.5]dec-1-en-4-one] the figure was 68%; with `Cc1cc(N2CCOCC2=O)ccc1CCS(=O)(=O)N1CCC2(CC1)N=C(c1cccc(OC(F)(F)F)c1)NC2=O` [Compound 793, 8-{2-[2-methyl-4-(3-oxo-morpholin-4-yl)-phenyl]-ethanesulfonyl}-2-(3-trifluoromethoxy-phenyl)-1,3,8-triaza-spiro[4.5]dec-1-en-4-one], 124%; with `Cc1cc(N(CC(F)(F)F)C(N)=O)ccc1/C=C/S(=O)(=O)N1CCC2(CC1)N=C(c1cccc(OC(F)(F)F)c1)NC2=O` [Compound 731, 1-(3-Methyl-4-{(E)-2-[4-oxo-2-(3-trifluoromethoxy-phenyl)-1,3,8-triaza-spiro[4.5]dec-1-ene-8-sulfonyl]-vinyl}-phenyl)-1-(2,2,2-trifluoro-ethyl)-urea], 54%.
For the compound `O=C1NC(C2CCCCC2)=NC12CCN(S(=O)(=O)CCc1cccc3cnccc13)CC2` [Compound 320, 2-cyclohexyl-8-(2-isoquinolin-5-yl-ethanesulfonyl)-1,3,8-triaza-spiro[4.5]dec-1-en-4-one], the “cAMP production activity (%)” value came out at 33%.
As to `Cc1cc(C(=O)N2CCN(C(C)(C)C)CC2)ccc1CCS(=O)(=O)N1CCC2(CC1)N=C(c1cccc(C(F)(F)F)c1)NC2=O` [Compound 373, 8-{2-[4-(4-tert-butyl-piperazine-1-carbonyl)-2-methyl-phenyl]-ethanesulfonyl}-2-(3-trifluoromethyl-phenyl)-1,3,8-triaza-spiro[4.5]dec-1-en-4-one], the “cAMP production activity (%)” value turned out to be 70%.
On to `CCC1CCC(C2=NC3(CCN(S(=O)(=O)CCc4c(C)cc(N(C)C(N)=O)cc4C)CC3)C(=O)N2)CC1` (stereo not drawn) [Compound 732, 1-(4-{2-[2-(4-Ethyl-cyclohexyl)-4-oxo-1,3,8-triaza-spiro[4.5]dec-1-ene-8-sulfonyl]-ethyl}-3,5-dimethyl-phenyl)-1-methyl-urea], for which the “cAMP production activity (%)” value was 45%.
`CC(=O)N(C)c1cccc(CCS(=O)(=O)N2CCC3(CC2)N=C(c2cccc(OC(F)(F)F)c2)NC3=O)c1C` [Compound 264, N-methyl-N-(2-methyl-3-{2-[4-oxo-2-(3-trifluoromethoxy-phenyl)-1,3,8-triaza-spiro[4.5]dec-1-ene-8-sulfonyl]-ethyl}-phenyl)-acetamide]: the “cAMP production activity (%)” value is recorded as 69%.
With `CC(=O)Nc1ccc(CCS(=O)(=O)N2CCC3(CC2)N=C(Nc2cccc(C(F)(F)F)c2)NC3=O)c(C)c1` [Compound 1402, N-(3-methyl-4-{2-[4-oxo-2-(3-trifluoromethyl-phenylamino)-1,3,8-triaza-spiro[4.5]dec-1-ene-8-sulfonyl]-ethyl}-phenyl)-acetamide], the “cAMP production activity (%)” value was 69%.
With `O=C1NC(C2CCCCC2)=NC12CCN(S(=O)(=O)CCc1cccc3cc[nH]c13)CC2` [Compound 835, 2-Cyclohexyl-8-[2-(1H-indol-7-yl)-ethanesulfonyl]-1,3,8-triaza-spiro[4.5]dec-1-en-4-one] the figure was 50%.
For the compound `Cc1cc(CN2C(=O)CCC2=O)cc(C)c1CCS(=O)(=O)N1CCC2(CC1)N=C(C1CCC(C)CC1)NC2=O` (stereo not drawn) [Compound 782, 1-(3,5-dimethyl-4-{2-[2-(4-methyl-cyclohexyl)-4-oxo-1,3,8-triaza-spiro[4.5]dec-1-ene-8-sulfonyl]-ethyl}-benzyl)-pyrrolidine-2,5-dione], the “cAMP production activity (%)” value was determined as 14%.
In the case of `Cc1cc(N(C)C(N)=O)cc(C)c1/C=C/[S@TB3](=O)(=O)N1CCC2(CC1)N=C(c1ccc(Cl)c(C(F)(F)F)c1)NC2=O` [Compound 1113, 1-(4-{(E)-2-[2-(4-chloro-3-trifluoromethyl-phenyl)-4-oxo-1,3,8-triaza-spiro[4.5]dec-1-ene-8-sulfonyl]-vinyl}-3,5-dimethyl-phenyl)-1-methyl-urea], the “cAMP production activity (%)” value worked out at 99%.
As to `CC(=O)NCc1ccc(CCS(=O)(=O)N2CCC3(CC2)N=C(C2CCC(CCC(F)(F)F)CC2)NC3=O)c(C)c1` (stereo not drawn) [Compound 1394, N-[3-Methyl-4-(2-{4-oxo-2-[4-(3,3,3-trifluoro-propyl)-cyclohexyl]-1,3,8-triaza-spiro[4.5]dec-1-ene-8-sulfonyl}-ethyl)-benzyl]-acetamide], the “cAMP production activity (%)” value is 82%.
For `Cc1cc(C(=O)N2CC[C@H](O)C2)ccc1CCS(=O)(=O)N1CCC2(CC1)N=C(c1cccc(C(F)(F)F)c1)NC2=O` [Compound 370, 8-{2-[4-((S)-3-hydroxy-pyrrolidine-1-carbonyl)-2-methyl-phenyl]-ethanesulfonyl}-2-(3-trifluoromethyl-phenyl)-1,3,8-triaza-spiro[4.5]dec-1-en-4-one], the “cAMP production activity (%)” value stood at 66%.
Consider `Cc1cc(C(=O)N(C)C)ccc1CCS(=O)(=O)N1CCC2(CC1)N=C(c1ccc(OC(F)(F)C(F)F)cc1)NC2=O` [Compound 94, 3,N,N-trimethyl-4-(2-{4-oxo-2-[4-(1,1,2,2-tetrafluoro-ethoxy)-phenyl]-1,3,8-triaza-spiro[4.5]dec-1-ene-8-sulfonyl}-ethyl)-benzamide], for which the “cAMP production activity (%)” value turned out to be 62%.
Take `CNC(=O)N(C)c1cc(C)c(/C=C/S(=O)(=O)N2CCC3(CC2)N=C(c2cccc(OC(F)(F)F)c2)NC3=O)c(C)c1` [Compound 1014, 1-(3,5-dimethyl-4-{(E)-2-[4-oxo-2-(3-trifluoromethoxy-phenyl)-1,3,8-triaza-spiro[4.5]dec-1-ene-8-sulfonyl]-vinyl}-phenyl)-1,3-dimethyl-urea]: the “cAMP production activity (%)” value came to 84%.
For the compound `CC(=O)Nc1ccc(CCS(=O)(=O)N2CCC3(CC2)N=C(c2ccc(C#N)cc2)NC3=O)c(C)c1` [Compound 906, N-(4-{2-[2-(4-cyano-phenyl)-4-oxo-1,3,8-triaza-spiro[4.5]dec-1-ene-8-sulfonyl]-ethyl}-3-methyl-phenyl)-acetamide], the “cAMP production activity (%)” value was 78%.
